Data on 22 compounds can be found in patent US20250215012A1, “IKZF2 DEGRADERS AND USES THEREOF” (REGENTS OF THE UNIVERSITY OF MICHIGAN, priority 2022, published 2025).

A value given as a limit tells only on which side of the number the result lay.

For the assay, the target named is IKZF2 (Homo sapiens (Human), UniProt Q96SW2+Q9UKS7). The assay can be described thus: IKZF2 HiBiT Assay (Jurkat-IKZF2-HiBiT cell line). The assay is classed as cell-based. The following applies: Jurkat-IKZF2-HiBiT cells, 24 hours; for DC50: read-out: HiBit assay degradation analysis DC50; for Dmax: read-out: HiBit assay degradation analysis Dmax. Here is the method: Degradation of IKZF2 protein is determined by IKZF2 HiBiT assay using the Jurkat-IKZF2-HiBiT (Promega) cell line. Briefly, cells are seeded in culture medium. Compounds are serially diluted in culture medium, and certain volume of the diluted compounds is added to the appropriate well of the plate. After the addition of compounds, the cells are incubated. At the end of treatment, Nano-Glo HiBiT Lytic Detection Reagent (Promega) is added to each well, and then the plates are incubated at room temperature for a certain time period. The luminescent signal is measured using a CALRIOstar plate reader (BMG Labtech). The readings are normalized to the DMSO-treated cells and the IC50 is calculated by nonlinear regression (four parameters sigmoid fitted with variable slope, least squares fit, and no constraint) analysis using the GraphPad Prism 8 software.
Degradation of IKZF2 protein was determined by IKZF2 HiBiT assay using the Jurkat-IKZF2-HiBiT (Promega) cell line. […] Compounds were serially diluted in culture medium, and 20 μl of the diluted compounds were added to the appropriate wells of the plate. After the addition of compounds, the cells were incubated at 37° C. in an atmosphere of 5% CO2 for 24 hours. At the end of treatment, 40 ul of Nano-Glo HiBiT Lytic Detection Reagent (Promega) was added to each well, and then the plates were incubated at room temperature for 10-20 minutes. The luminescent signal was measured using a CALRIOstar plate reader (BMG Labtech). The readings were normalized to the DMSO-treated cells and the IC50 was calculated by nonlinear regression (four parameters sigmoid fitted with variable slope, least squares fit, and no constraint) analysis using the GraphPad Prism 8 software.
(In general: HiBiT is a short tag that completes a luciferase, so light tracks the accessible tagged protein.)

IKZF2, sequence (Q9UKS7 whole entry): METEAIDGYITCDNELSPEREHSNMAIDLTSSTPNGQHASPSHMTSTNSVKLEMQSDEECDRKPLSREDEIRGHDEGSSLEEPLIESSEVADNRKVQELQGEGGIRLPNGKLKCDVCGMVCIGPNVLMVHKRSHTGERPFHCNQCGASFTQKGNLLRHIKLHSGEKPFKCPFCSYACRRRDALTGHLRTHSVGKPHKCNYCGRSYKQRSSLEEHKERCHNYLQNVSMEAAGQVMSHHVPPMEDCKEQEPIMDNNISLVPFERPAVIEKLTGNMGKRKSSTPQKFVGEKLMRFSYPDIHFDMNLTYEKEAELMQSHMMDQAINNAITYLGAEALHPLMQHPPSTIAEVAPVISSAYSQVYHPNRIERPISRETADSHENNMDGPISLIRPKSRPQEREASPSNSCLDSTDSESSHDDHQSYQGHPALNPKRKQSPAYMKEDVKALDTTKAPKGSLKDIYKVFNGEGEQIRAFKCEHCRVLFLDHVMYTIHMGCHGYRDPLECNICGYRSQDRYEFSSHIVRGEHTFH
IKZF2, sequence (Q96SW2 whole entry): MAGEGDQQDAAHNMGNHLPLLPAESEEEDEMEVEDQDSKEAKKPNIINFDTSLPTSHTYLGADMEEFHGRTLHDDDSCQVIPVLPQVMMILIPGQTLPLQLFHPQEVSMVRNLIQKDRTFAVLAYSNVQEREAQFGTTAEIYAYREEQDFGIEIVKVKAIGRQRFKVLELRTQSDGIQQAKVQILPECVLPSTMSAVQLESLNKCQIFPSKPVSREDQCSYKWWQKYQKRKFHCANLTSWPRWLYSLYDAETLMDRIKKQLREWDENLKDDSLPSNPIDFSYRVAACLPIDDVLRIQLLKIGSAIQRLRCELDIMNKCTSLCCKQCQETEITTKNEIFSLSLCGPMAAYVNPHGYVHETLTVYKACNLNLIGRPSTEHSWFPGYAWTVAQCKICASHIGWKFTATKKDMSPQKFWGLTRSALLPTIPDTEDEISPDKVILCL
IKZF2, sequence (Q16531 whole entry partner): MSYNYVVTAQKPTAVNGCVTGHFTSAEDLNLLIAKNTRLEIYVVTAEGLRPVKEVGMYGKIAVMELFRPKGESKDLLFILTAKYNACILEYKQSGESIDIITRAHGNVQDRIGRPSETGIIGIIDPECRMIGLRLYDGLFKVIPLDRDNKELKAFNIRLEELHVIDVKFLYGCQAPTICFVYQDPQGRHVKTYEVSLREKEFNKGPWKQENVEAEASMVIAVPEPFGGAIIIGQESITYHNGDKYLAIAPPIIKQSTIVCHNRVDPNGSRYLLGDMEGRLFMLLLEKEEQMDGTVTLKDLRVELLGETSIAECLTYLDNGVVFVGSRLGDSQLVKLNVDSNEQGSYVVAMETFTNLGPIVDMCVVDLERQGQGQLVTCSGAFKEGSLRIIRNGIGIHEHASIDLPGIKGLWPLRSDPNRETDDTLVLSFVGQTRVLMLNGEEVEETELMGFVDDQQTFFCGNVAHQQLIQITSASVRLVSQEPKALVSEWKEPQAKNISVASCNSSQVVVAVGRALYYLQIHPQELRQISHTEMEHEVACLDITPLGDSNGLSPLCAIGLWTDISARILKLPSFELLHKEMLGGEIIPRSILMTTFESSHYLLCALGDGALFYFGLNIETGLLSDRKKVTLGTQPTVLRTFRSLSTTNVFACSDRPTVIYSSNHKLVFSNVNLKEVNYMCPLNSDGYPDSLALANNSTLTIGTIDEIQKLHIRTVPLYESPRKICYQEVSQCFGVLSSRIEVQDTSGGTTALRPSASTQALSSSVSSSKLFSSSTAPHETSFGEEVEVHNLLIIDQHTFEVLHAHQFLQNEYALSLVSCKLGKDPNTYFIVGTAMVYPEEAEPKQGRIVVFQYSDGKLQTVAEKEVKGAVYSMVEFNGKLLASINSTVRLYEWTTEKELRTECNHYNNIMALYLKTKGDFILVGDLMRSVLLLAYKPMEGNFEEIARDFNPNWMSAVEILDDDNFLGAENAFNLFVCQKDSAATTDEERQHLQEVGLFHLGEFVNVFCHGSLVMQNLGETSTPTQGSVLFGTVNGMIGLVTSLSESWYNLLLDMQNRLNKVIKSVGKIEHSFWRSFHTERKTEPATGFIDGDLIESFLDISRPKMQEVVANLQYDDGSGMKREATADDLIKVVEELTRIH

As for `O=C1CC[C@H](N2Cc3c(ccc4c3OCC43CCN(Cc4cc(F)cc(-c5cnn(C6COC6)c5)c4)CC3)C2=O)C(=O)N1` [Compound A276, (S)-3-(1′-(3-fluoro-5-(1-(oxetan-3-yl)-1H-pyrazol-4-yl)benzyl)-6-oxo-6,8-dihydro-2H,7H-spiro[furo[2,3-e]isoindole-3,4′-piperidin]-7-yl)piperidine-2,6-dione], the DC50 – broadly, the concentration giving 50% degradation – is < 50 nM and the Dmax (as a rule, the greatest extent of degradation seen) fell in the range of 40 to 60%.
As to `O=C1CC[C@H](N2Cc3c(ccc4c3OCC43CCN(Cc4ccc5c(c4)C(=O)NC5)CC3)C2=O)C(=O)N1` [Compound A171, (S)-3-(6-oxo-1′-((3-oxoisoindolin-5-yl)methyl)-6,8-dihydro-2H,7H-spiro[furo[2,3-e]isoindole-3,4′-piperidin]-7-yl)piperidine-2,6-dione], the DC50 lay in the range of 50 to 200 nM and the Dmax is 60 to 80%.
The matching figures for `O=C1CCC(N2Cc3c(ccc4c3OCC43CCN(Cc4ccc5cccnc5c4)CC3)C2=O)C(=O)N1` (centres unmarked) [Compound A64, 3-(6-oxo-1′-(quinolin-7-ylmethyl)-6,8-dihydro-2H,7H-spiro[furo[2,3-e]isoindole-3,4′-piperidin]-7-yl)piperidine-2,6-dione]: 50 to 200 nM and 60 to 80%.
For the compound `O=C1CC[C@H](N2Cc3c(ccc4c3OCC43CCN(Cc4cccc(NC(=O)C(F)(F)F)c4)CC3)C2=O)C(=O)N1` [Compound A278, (S)-N-(3-((7-(2,6-dioxopiperidin-3-yl)-6-oxo-7,8-dihydro-2H,6H-spiro[furo[2,3-e]isoindole-3,4′-piperidin]-1′-yl)methyl)phenyl)-2,2,2-trifluoroacetamide], the DC50 was < 50 nM and the Dmax is > 80%.
Consider `O=C1CCC(N2Cc3c(ccc4c3OCC43CCN(Cc4cccc5[nH]cc(Cl)c45)CC3)C2=O)C(=O)N1` (centres unmarked) [Compound A141, 3-(1′-((3-chloro-1H-indol-4-yl)methyl)-6-oxo-6,8-dihydro-2H,7H-spiro[furo[2,3-e]isoindole-3,4′-piperidin]-7-yl)piperidine-2,6-dione], for which the DC50 is < 50 nM and the Dmax was in the range of 60 to 80%.
The matching figures for `N#Cc1ccc(CN2CCC3(CC2)COc2c3ccc3c2CN(C2CCC(=O)NC2=O)C3=O)cc1` (centres unmarked) [Compound A195, 4-((7-(2,6-dioxopiperidin-3-yl)-6-oxo-7,8-dihydro-2H,6H-spiro[furo[2,3-e]isoindole-3,4′-piperidin]-1′-yl)methyl)benzonitrile]: > 500 nM and < 40%.
The matching figures for `O=C1CCC(N2Cc3c(ccc4c3OCC43CCN(Cc4ccc(F)c5ccccc45)CC3)C2=O)C(=O)N1` (centres unmarked) [Compound A36, 3-(1′-((4-fluoronaphthalen-1-yl)methyl)-6-oxo-6,8-dihydro-2H,7H-spiro[furo[2,3-e]isoindole-3,4′-piperidin]-7-yl)piperidine-2,6-dione]: 50 to 200 nM and 60 to 80%.
With `O=C1CCC(N2Cc3c(ccc4c3OCC43CCN(CC4CC5CCC4C5)CC3)C2=O)C(=O)N1` (centres unmarked) [Compound A24, 3-(1′-(bicyclo[2.2.1]heptan-2-ylmethyl)-6-oxo-6,8-dihydro-2H,7H-spiro[furo[2,3-e]isoindole-3,4′-piperidin]-7-yl)piperidine-2,6-dione], the DC50 was > 500 nM and the Dmax lay within 40 to 60%.
For `O=C1CCC(N2Cc3c(ccc4c3OCC43CCN(Cc4ccc5ccncc5c4)CC3)C2=O)C(=O)N1` (centres unmarked) [Compound A45], the DC50 lay within 200 to 500 nM and the Dmax was 40 to 60%.
The matching figures for `O=C1CCC(N2Cc3c(ccc4c3OCC43CCN(Cc4cccc5cnccc45)CC3)C2=O)C(=O)N1` (centres unmarked) [Compound A39, 3-(1′-(isoquinolin-5-ylmethyl)-6-oxo-6,8-dihydro-2H,7H-spiro[furo[2,3-e]isoindole-3,4′-piperidin]-7-yl)piperidine-2,6-dione]: < 50 nM and 60 to 80%.
Turning to `Cn1ccc(COc2cccc(CN3CCC4(CC3)COc3c4ccc4c3CN(C3CCC(=O)NC3=O)C4=O)c2)n1` (centres unmarked) [Compound A167, 3-(1′-(3-((1-methyl-1H-pyrazol-3-yl)methoxy)benzyl)-6-oxo-6,8-dihydro-2H,7H-spiro[furo[2,3-e]isoindole-3,4′-piperidin]-7-yl)piperidine-2,6-dione], the DC50 is 50 to 200 nM and the Dmax is 40 to 60%.
For the compound `O=C1CCC(N2Cc3c(ccc4c3OCC43CCN(Cc4nncn4-c4ccccc4)CC3)C2=O)C(=O)N1` (centres unmarked) [Compound A253, 3-(6-oxo-1′-((4-phenyl-4H-1,2,4-triazol-3-yl)methyl)-6,8-dihydro-2H,7H-spiro[furo[2,3-e]isoindole-3,4′-piperidin]-7-yl)piperidine-2,6-dione], the DC50 was > 500 nM and the Dmax is < 40%.
Regarding `Cc1[nH]c2c(CN3CCC4(CC3)COc3c4ccc4c3CN(C3CCC(=O)NC3=O)C4=O)cccc2c1C` (centres unmarked) [Compound A111, 3-(1′-((2,3-dimethyl-1H-indol-7-yl)methyl)-6-oxo-6,8-dihydro-2H,7H-spiro[furo[2,3-e]isoindole-3,4′-piperidin]-7-yl)piperidine-2,6-dione], the DC50 fell in the range of 50 to 200 nM and the Dmax was 60 to 80%.
The matching figures for `[2H]C([2H])([2H])n1cc2ccc(CN3CCC4(CC3)COc3c4ccc4c3CN([C@H]3CCC(=O)NC3=O)C4=O)cc2n1` [Compound A301, (S)-3-(1′-((2-(methyl-d3)-2H-indazol-6-yl)methyl)-6-oxo-6,8-dihydro-2H,7H-spiro[furo[2,3-e]isoindole-3,4′-piperidin]-7-yl)piperidine-2,6-dione]: < 50 nM and 60 to 80%.
Regarding `CC(C)Oc1cc(F)ccc1CN1CCC2(CC1)COc1c2ccc2c1CN([C@H]1CCC(=O)NC1=O)C2=O` [Compound A361, (S)-3-(1′-(4-fluoro-2-isopropoxybenzyl)-6-oxo-6,8-dihydro-2H,7H-spiro[furo[2,3-e]isoindole-3,4′-piperidin]-7-yl)piperidine-2,6-dione], the DC50 was > 500 nM and the Dmax lay in the range of 40 to 60%.
In the case of `O=C1CCC(N2Cc3c(ccc4c3OCC43CCN(Cc4ccc(OC(F)F)cc4)CC3)C2=O)C(=O)N1` (centres unmarked) [Compound A197, 3-(1′-(4-(difluoromethoxy)benzyl)-6-oxo-6,8-dihydro-2H,7H-spiro[furo[2,3-e]isoindole-3,4′-piperidin]-7-yl)piperidine-2,6-dione], the DC50 was > 500 nM and the Dmax was < 40%.
For the compound `O=C1CCC(N2Cc3c(ccc4c3OCC43CCN(Cc4cccc(OC(F)F)c4)CC3)C2=O)C(=O)N1` (centres unmarked) [Compound A90, 3-(1′-(3-(difluoromethoxy)benzyl)-6-oxo-6,8-dihydro-2H,7H-spiro[furo[2,3-e]isoindole-3,4′-piperidin]-7-yl)piperidine-2,6-dione], the DC50 was > 500 nM and the Dmax is < 40%.
The matching figures for `O=C1CCC(N2Cc3c(ccc4c3OCC43CCN(Cc4ccc5ncccc5c4)CC3)C2=O)C(=O)N1` (centres unmarked) [Compound A46, 3-(6-oxo-1′-(quinolin-6-ylmethyl)-6,8-dihydro-2H,7H-spiro[furo[2,3-e]isoindole-3,4′-piperidin]-7-yl)piperidine-2,6-dione]: 200 to 500 nM and 40 to 60%.
As for `O=C1CCC(N2Cc3c(ccc4c3OCC43CCN(Cc4cccc5c4CCCC5)CC3)C2=O)C(=O)N1` (centres unmarked) [Compound A208, 3-(6-oxo-1′-((5,6,7,8-tetrahydronaphthalen-1-yl)methyl)-6,8-dihydro-2H,7H-spiro[furo[2,3-e]isoindole-3,4′-piperidin]-7-yl)piperidine-2,6-dione], the DC50 was < 50 nM and the Dmax was in the range of 60 to 80%.
The matching figures for `Cn1cc(-c2cccc(CN3CCC4(CC3)CNc3c4ccc4c3CN(C3CCC(=O)NC3=O)C4=O)c2)cn1` (centres unmarked) [Compound A309, 3-(1-(3-(1-methyl-1H-pyrazol-4-yl)benzyl)-6′-oxo-1′,2′,6′,8′-tetrahydro-7′H-spiro[piperidine-4,3′-pyrrolo[3,4-g]indol]-7′-yl)piperidine-2,6-dione]: > 500 nM and 40 to 60%.
The matching figures for `O=C1CC[C@H](N2Cc3c(ccc4c3OCC43CCN(Cc4cnn(CC5(c6ccccc6)CC5)c4)CC3)C2=O)C(=O)N1` [Compound A348, (S)-3-(6-oxo-1′-((1-((1-phenylcyclopropyl)methyl)-1H-pyrazol-4-yl)methyl)-6,8-dihydro-2H,7H-spiro[furo[2,3-e]isoindole-3,4′-piperidin]-7-yl)piperidine-2,6-dione]: < 50 nM and 60 to 80%.
As to `O=C1CCC(N2Cc3c(ccc4c3OCC43CCN(Cc4ccc5oncc5c4)CC3)C2=O)C(=O)N1` (centres unmarked) [Compound A60, 3-(1′-(benzo[d]isoxazol-5-ylmethyl)-6-oxo-6,8-dihydro-2H,7H-spiro[furo[2,3-e]isoindole-3,4′-piperidin]-7-yl)piperidine-2,6-dione], the DC50 was > 500 nM and the Dmax was in the range of 40 to 60%.
